Paper PMC8453943 (Clinical Pharmacology in Drug Development, 2021)
Like-named read-outs stand apart in the source and are kept apart here.

Assays:
EGFR = details: NSCLC with EGFR exon 20 insertion mutations; cited from earlier work
[1] = Part 1 single-ascending-dose study, plasma PK; assay type: in vivo, human; details: for Tmax: human, plasma, po; for CL/F, Geometric mean (% CV) / CL/F, Mean (SD): fasted
[2] = Part 1 single-ascending-dose study, urine PK; assay type: in vivo, human; details: within 48 hours, across all dose groups
[3] = Part 2 effect of a low-fat meal on PK; assay type: in vivo, human; details: for AUC(0-inf) / Cmax / Tmax: human, plasma, oral; for Tmax: Median (range)
[4] = Part 3 relative bioavailability of capsule B vs capsule A; assay type: in vivo, human
[5] = Safety and tolerability assessments; assay type: in vivo, human
[6] = Dose proportionality, power model on pooled exposure data; assay type: in vivo, human; details: 40- to 160-mg dose range, pooled parts 1-3
[7] = cited from earlier work
CYP3A4/5 = details: recombinant human CYPs, in vitro; cited from earlier work
[8] = repeat dosing, animals; dermal and gastrointestinal toxicities; cited from earlier work
[9] = in vitro assays; cited from earlier work
[10] = cited from earlier work; remark: listed apart in the source
[11] = preclinical studies; cited from earlier work
[12] = part 1, 120 mg single oral dose
[13] = part 1, 160 mg single oral dose
[14] = 120 mg, Geometric mean (% CV), part 2, 120 mg, fasted
[15] = 120 mg, Geometric mean (% CV), part 2, 120 mg, low-fat meal
[16] = 120 mg, Mean (SD), part 2, 120 mg, fasted
[17] = 120 mg, Mean (SD), part 2, 120 mg, low-fat meal
[18] = 160 mg, Geometric mean (% CV), part 2, 160 mg, fasted
[19] = 160 mg, Geometric mean (% CV), part 2, 160 mg, low-fat meal
[20] = 160 mg, Mean (SD), part 2, 160 mg, fasted
[21] = 160 mg, Mean (SD), part 2, 160 mg, low-fat meal
[22] = part 2, 120 mg, low-fat meal (test) vs fasted (reference)
[23] = part 3, 160 mg, fasted, capsule B (test) vs capsule A (reference)
[24] = AEs in ≥10% of volunteers in any part
[25] = part 1, overall (N = 40, includes pooled placebo)
[26] = part 2, 120 mg, low-fat meal (n = 6)
[27] = part 2, 160 mg, fasted (n = 10)
[28] = part 2, 160 mg, low-fat meal (n = 10)
[29] = part 3, mobocertinib 160 mg, overall (N = 13)

## C#Cc1cccc(Nc2ncnc3cc(OCCOC)c(OCCOC)cc23)c1 [erlotinib]
EGFR
  Median progression-free survival: ≈ 2 months

## C=CC(=O)Nc1cc(Nc2nccc(-c3cn(C)c4ccccc34)n2)c(OC)cc1N(C)CCN(C)C [osimertinib]
EGFR
  Median progression-free survival: ≈ 2 months

## C=CC(=O)Nc1cc(Nc2ncc(C(=O)OC(C)C)c(-c3cn(C)c4ccccc34)n2)c(OC)cc1N(C)CCN(C)C [Mobocertinib]
[1]
  Tmax: 4 to 6 h
[1]; 80 mg
  Tmax: 4 h
[1]; 120 mg
  Tmax: 6 h
[1]; 160 mg
  Tmax: 6 h
[1]; part 1, 20 mg mobocertinib cohort
  Time for which analyte was quantifiable in plasma: up to 72 hours
[1]; part 1, 20 mg single oral dose
  CL/F, Geometric mean (% CV): 314 (11.9) L/h
  CL/F, Mean (SD): 316 (37.5) L/h
[1]; part 1, 40 mg mobocertinib cohort
  Time for which analyte was quantifiable in plasma: ≤ 96 h
[1]; part 1, 40 mg single oral dose
  CL/F, Geometric mean (% CV): 249 (49.5) L/h
  CL/F, Mean (SD): 283 (140.1) L/h
[1]; part 1, 80 mg mobocertinib cohort
  Time for which analyte was quantifiable in plasma: ≤ 96 h
[1]; part 1, 80 mg single oral dose
  CL/F, Geometric mean (% CV): 312 (72.0) L/h
  CL/F, Mean (SD): 378 (272.2) L/h
[1]; part 1, 120 mg mobocertinib cohort
  Time for which analyte was quantifiable in plasma: ≤ 96 h
[1]; [12]
  CL/F, Geometric mean (% CV): 263 (56.9) L/h
  CL/F, Mean (SD): 292 (166.2) L/h
[1]; part 1, 160 mg mobocertinib cohort
  Time for which analyte was quantifiable in plasma: ≤ 168 h
[1]; [13]
  CL/F, Geometric mean (% CV): 157 (33.2) L/h
  CL/F, Mean (SD): 168 (55.7) L/h
[2]
  Administered mobocertinib dose excreted unchanged in urine: < 1.2%
[3]; [14]
  AUC(0-inf): 526 ng·h/mL
  Cmax: 31.2 ng/mL
[3]; [15]
  AUC(0-inf): 534 ng·h/mL
  Cmax: 27.5 ng/mL
[3]; [16]
  AUC(0-inf): 587 ng·h/mL
  Cmax: 35.5 ng/mL
[3]; [17]
  AUC(0-inf): 578 ng·h/mL
  Cmax: 29.5 ng/mL
[3]; 120 mg, part 2, 120 mg, fasted
  Tmax: 4 h
[3]; 120 mg, part 2, 120 mg, low-fat meal
  Tmax: 6 h
[3]; [18]
  AUC(0-inf): 743 ng·h/mL
  Cmax: 41 ng/mL
[3]; [19]
  AUC(0-inf): 706 ng·h/mL
  Cmax: 39.5 ng/mL
[3]; [20]
  AUC(0-inf): 862 ng·h/mL
  Cmax: 45.8 ng/mL
[3]; [21]
  AUC(0-inf): 768 ng·h/mL
  Cmax: 43 ng/mL
[3]; 160 mg, part 2, 160 mg, fasted
  Tmax: 6 h
[3]; 160 mg, part 2, 160 mg, low-fat meal
  Tmax: 6 h
[3]; mobocertinib and its active metabolites
  Effect of a low-fat meal on PK: did not affect the PK
[3]; [22]
  AUC∞, Geometric LS Mean Ratio (90%CI): 1.02 (0.90‐1.15)
  Cmax, Geometric LS Mean Ratio (90%CI): 0.88 (0.71‐1.09)
[3]; part 2, 160 mg, low-fat meal (test) vs fasted (reference)
  Cmax, Geometric LS Mean Ratio (90%CI): 0.96
[3]; part 2, 120 and 160 mg, low-fat meal and fasted
  Time for which mean plasma concentrations were quantifiable: up to 168 hours
[4]; human, plasma, oral, 160 mg
  Tmax: 5 to 6 h
[4]; [23]
  AUC∞, LS Geometric Mean Ratio (90%CI): 0.96
  Cmax, LS Geometric Mean Ratio (90%CI): 0.93
[5]; [24]
  Diarrhea: 10.0%
  Flatulence: 12.5%
  Soft feces: 12.5%
[5]; all parts
  Serious AEs: No serious AEs were reported
[5]; part 1 (includes pooled placebo)
  Volunteers who experienced AEs: 48%
[5]; part 1, 20 mg (n = 6)
  AE leading to discontinuation: 0 n (%)
  Any AE: 2 (33) n (%)
  Grade 1 AE: 2 (33) n (%)
  Grade 2 AE: 0 n (%)
  Grade ≥3 AE: 0 n (%)
  Treatment-related AE: 1 (17) n (%)
[5]; part 1, 40 mg (n = 6)
  AE leading to discontinuation: 0 n (%)
  Any AE: 3 (50) n (%)
  Grade 1 AE: 2 (33) n (%)
  Grade 2 AE: 1 (17) n (%)
  Grade ≥3 AE: 0 n (%)
  Treatment-related AE: 0 n (%)
[5]; part 1, 80 mg (n = 6)
  AE leading to discontinuation: 0 n (%)
  Any AE: 4 (67) n (%)
  Grade 1 AE: 3 (50) n (%)
  Grade 2 AE: 1 (17) n (%)
  Grade ≥3 AE: 0 n (%)
  Treatment-related AE: 3 (50) n (%)
[5]; part 1, 120 mg (n = 6)
  AE leading to discontinuation: 0 n (%)
  Any AE: 3 (50) n (%)
  Grade 1 AE: 1 (17) n (%)
  Grade 2 AE: 2 (33) n (%)
  Grade ≥3 AE: 0 n (%)
  Treatment-related AE: 0 n (%)
[5]; part 1, 160 mg (n = 6)
  AE leading to discontinuation: 0 n (%)
  Any AE: 5 (83) n (%)
  Grade 1 AE: 4 (67) n (%)
  Grade 2 AE: 1 (17) n (%)
  Grade ≥3 AE: 0 n (%)
  Treatment-related AE: 3 (50) n (%)
[5]; part 1, 20-mg dose group
  Decrease in serum creatine kinase: –26.8 U/L
[5]; part 1, 160-mg group
  Decrease in serum creatine kinase: –69.0 U/L
[5]; [25]
  AE leading to discontinuation: 0 n (%)
  Any AE: 19 (48) n (%)
  Grade 1 AE: 14 (35) n (%)
  Grade 2 AE: 5 (13) n (%)
  Grade ≥3 AE: 0 n (%)
  Treatment-related AE: 9 (23) n (%)
[5]; part 2
  Volunteers who experienced AEs: 75%
[5]; part 2, 120 mg, fasted (n = 6)
  AE leading to discontinuation: 0 n (%)
  Any AE: 3 (50) n (%)
  Grade 1 AE: 2 (33) n (%)
  Grade 2 AE: 1 (17) n (%)
  Grade ≥3 AE: 0 n (%)
  Treatment-related AE: 3 (50) n (%)
  Treatment-related AE, Grade ≥3: 0 n (%)
[5]; [26]
  AE leading to discontinuation: 0 n (%)
  Any AE: 3 (50) n (%)
  Grade 1 AE: 2 (33) n (%)
  Grade 2 AE: 0 n (%)
  Grade ≥3 AE: 1 (17) n (%)
  Treatment-related AE: 2 (33) n (%)
  Treatment-related AE, Grade ≥3: 0 n (%)
[5]; [27]
  AE leading to discontinuation: 0 n (%)
  Any AE: 5 (50) n (%)
  Grade 1 AE: 5 (50) n (%)
  Grade 2 AE: 0 n (%)
  Grade ≥3 AE: 0 n (%)
  Treatment-related AE: 5 (50) n (%)
  Treatment-related AE, Grade ≥3: 0 n (%)
[5]; [28]
  AE leading to discontinuation: 0 n (%)
  Any AE: 7 (70) n (%)
  Grade 1 AE: 7 (70) n (%)
  Grade 2 AE: 0 n (%)
  Grade ≥3 AE: 0 n (%)
  Treatment-related AE: 4 (40) n (%)
  Treatment-related AE, Grade ≥3: 0 n (%)
[5]; part 2, overall (N = 16)
  AE leading to discontinuation: 0 n (%)
  Any AE: 12 (75) n (%)
  Grade 1 AE: 11 (69) n (%)
  Grade 2 AE: 0 n (%)
  Grade ≥3 AE: 1 (6) n (%)
  Treatment-related AE: 8 (50) n (%)
  Treatment-related AE, Grade ≥3: 0 n (%)
[5]; part 3
  Volunteers who experienced AEs: 46%
[5]; [29]
  AE leading to discontinuation: 1 (8) n (%)
  Grade 1 AE: 5 (39) n (%)
  Grade 2 AE: 1 (8) n (%)
  Grade ≥3 AE: 0 n (%)
  Treatment-related AE: 2 (15) n (%)
  Volunteers with AEs: 6 (46) n (%)
[5]; single oral dose
  Single doses tolerated in healthy adult volunteers: up to 160 mg
[6]
  Slope (95% CI) of regression of log mobocertinib AUC∞ vs log dose: 1.20 (0.93‐1.46)
[7]; 160 mg once daily, repeat dosing, ref NCT02716116
  Accumulation ratio of AUC0-24, cycle 2 day 1 over cycle 1 day 1: 1.03
[7]; once daily, patients
  Maximum tolerated dose: 160 mg
CYP3A4/5
  Percent contribution of CYP3A4/5 to metabolism: > 90%
[8]
  Maximum tolerated dose: 10 mg/kg
[9]
  Genotoxicity: no evidence of genotoxicity
[10]
  Permeability: high permeability
  Solubility: high solubility
[11]
  Route of elimination: eliminated almost completely through feces
